Reference: patent publication US8951995B2, “Use of 24-nor-UDCA” (Medizinische Universitat Graz, priority 2005, dated 2015)
Like-named read-outs stand apart in the source and are kept apart here.

Assays:
Mrp4 = assay: Real-time PCR, relative expression of Mrp4; format: in vivo; conditions: liver mRNA, Mdr2−/− mice fed 0.5% w/w for 4 weeks; KO = 100; mean ± SD, n = 5
Experimental: (§1) Two months-old Mdr2^−/− (a time point when sclerosing cholangitis is already fully established in these animals (Fickert, Zollner, et al. 2002) were either fed a diet supplemented with norUDCA (0.5%, w/w) or UDCA as a clinical comparator (0.5%, w/w) for 4 weeks and compared to standard-diet-fed Mdr2^−/− and wild type controls.
(§2) RNA isolation, cDNA synthesis and Taqman® real time PCR were performed as described previously (Wagner, Fickert, et al. 2003). The following primers and 5′ FAM, 3′ TAMRA labeled probes were used: Col1a1 fwd: […] (Seq ID No. 35), Col1a1 rev: […] (Seq ID No. 36) and Col1a1 probe: […] (Seq ID No. 37); TIMP-1 fwd: […] (Seq ID No. 38), TIMP-1 rev: […] (Seq ID No. 39) and TIMP-1 probe: […] (Seq ID No. 40); MMP-2 fwd: […] (Seq ID No. 41), MMP-2 rev: […] (Seq ID No. 42) and MMP-2 probe: […] (Seq ID No. 43).

Cyp3a11 = assay: Real-time PCR, relative expression of Cyp3a11; format: in vivo; conditions: liver mRNA, Mdr2−/− mice fed 0.5% w/w for 4 weeks; KO = 100; mean ± SD, n = 5
Experimental: as §1, §2

Sult2a1 = assay: Real-time PCR, relative expression of Sult2a1; format: in vivo; conditions: liver mRNA, Mdr2−/− mice fed 0.5% w/w for 4 weeks; KO not detectable, KO + UDCA = 100; mean ± SD, n = 5
Experimental: as §1, §2

Cyp2b10 = assay: Real-time PCR, relative expression of Cyp2b10; format: in vivo; conditions: liver mRNA, Mdr2−/− mice fed 0.5% w/w for 4 weeks; KO = 100; mean ± SD, n = 5
Experimental: as §1, §2

Mdr2−/− mice [1] = assay: Bile flow and biliary excretion measurement; format: in vivo; conditions: Mdr2−/− mice fed 0.5% w/w for 4 weeks, mean ± SD; for Bile flow: normalized to liver weight
Experimental: as §1
Bile flow was determined gravimetrically and normalized to liver weight as described previously (Fickert, Zollner, et al. 2001). Biliary phospholipids concentration was determined using a commercially available kit (Phospholipid B; Wako, Neuss, Germany) according to the manufacture's instructions. Biliary cholesterol concentration was determined using a commercial available kit (Cholesterol liquicolor; Human, Wiesbaden, Germany) according to the manufacture's instructions. Biliary gluthathione (GSH) concentration was determined after protein precipitation in 5% metaphosphoric acid using the Glutathione Assay Kit (Calbiochem, San Diego, US) according to the manufacturer's instructions. Biliary bile acid concentration was analyzed using a 3-alpha-hydroxysteroid dehydrogenase assay (Ecoline St, DiaSys) according to the manufacturer's instructions.

Cyp7a1 = assay: Real-time PCR, relative expression of Cyp7a1; format: in vivo; conditions: liver mRNA, Mdr2−/− mice fed 0.5% w/w for 4 weeks; KO = 100; mean ± SD, n = 5
Experimental: as §1, §2

Mdr2−/− mice [2] = assay: Routine serum biochemistry in bile acid-fed Mdr2−/− mice; format: in vivo; conditions: Mdr2−/− mice fed 0.5% w/w in diet for 4 weeks, mean ± SD, n = 5
Experimental: as §1
Serum samples were stored at −70° C. until analysis of alanine transaminase (ALT) and alkaline phosphatase (AP) by routine clinical chemistry performed on a Hitachi 717 analyzer (Boehringer Mannheim, Mannheim, Germany). For determination of total serum bile acid levels, a commercial 3-alpha-hydroxysteroid dehydrogenase assay (Ecoline S+; DiaSys, Holzheim, Germany) was used.

Ugt1a1 = assay: Real-time PCR, relative expression of Ugt1a1; format: in vivo; conditions: liver mRNA, Mdr2−/− mice fed 0.5% w/w for 4 weeks; KO = 100; mean ± SD, n = 5
Experimental: as §1, §2

Mrp3 = assay: Real-time PCR, relative expression of Mrp3; format: in vivo; conditions: liver mRNA, Mdr2−/− mice fed 0.5% w/w for 4 weeks; KO = 100; mean ± SD, n = 5
Experimental: as §1, §2

Mdr2−/− mice [3] = assay: Liver histology (H&E, Sirius red) in bile acid-fed Mdr2−/− mice; format: in vivo
From the text: as §1
For conventional light microscopy, livers were fixed in 4% neutral buffered formaldehyde solution and embedded in paraffin. Sections (4 μm thick) were stained with H&E and Sirius red stain, respectively. The sections were coded and examined by a pathologist (H. D.) unaware of the animals' treatment.

[4] = test system: portal neutrophils (CD11b-positive cells); assay: Immunohistochemistry for neutrophils marker CD-11b; format: in vivo; conditions: Mdr2−/− mice fed 0.5% w/w for 4 weeks, vs standard diet-fed KO; FIG. 3
From the text: as §1
To quantify neutrophils CD 11b-positive cells were detected as described previously (Fickert, Fuchsbichler, et al. 2004) with the modification that binding of the antibody was detected using the ABC system (Dako) using AEC (Dako) as substrate. Number of neutrophils was calculated by counting positive cells in 20 portal fields in sections of 3 animals in each group.

[5] = cited from earlier work
[6] = humans, relative to normal bile flow; cited from earlier work
VCAM = assay: Immunohistochemistry for vascular cell adhesion molecule (VCAM); format: in vivo; conditions: interlobular and lobular bile ducts, Mdr2−/− mice fed 0.5% w/w for 4 weeks; FIG. 4
Experimental: as §1
Immunohistochemistry for VCAM was performed on acetone fixed cryosections using the monoclonal rat anti CD106 (VCAM-1, dilution 1:30, PharMingen, San Diego, Calif., USA) and binding of the antibody was detected using the ABC system (Dako) using AEC (Dako) as substrate.

[7] = test system: hepatocytes and cholangiocytes; assay: Immunohistochemistry for proliferation marker Ki-67; format: in vivo; conditions: Mdr2−/− mice fed 0.5% w/w for 4 weeks; FIG. 5
Experimental: as §1
Immunohistochemistry for Ki-67 was performed on microwave-treated ([…] citrate buffer pH 6.0) paraffin sections (4 μm thick) using a polyclonal rabbit anti-Ki-67 antibody (dilution 1:750, Novocastra, Newcastle upon Tyne, UK). Binding of the antibody was detected using the ABC system (Dako) using AEC (Dako) as substrate. Number of proliferating hepatocytes was calculated by counting positive nuclei in 30 high power fields in sections of 3 animals in each group. Number of proliferating bile duct epithelial cells was calculated by counting positive nuclei in 20 portal fields in sections of 3 animals in each group.

Mdr2−/− mice [8] = assay: Hepatic hydroxyproline content; format: in vivo; conditions: Mdr2−/− mice fed 0.5% w/w for 4 weeks, vs control diet-fed KO; FIG. 2
Experimental: as §1
To quantify liver fibrosis in our model hepatic hydroxyproline content was determined. The right liver lobe was homogenized in 6-normal HCl (200 mg liver tissue/4 ml HCl) and hydrolyzed at 110° C. for 16 h. After filtration 50 μl were added to 450 μl 2.2% NaOH dissolved in citrate-acetate buffer (50 g citric acid×H2O, 12 ml acidic acid, 120 g sodium acetate×3H2O, 34 g NaOH ad 1 liter distilled water; pH 6.0). After adding 250 μl perchloric acid and 12 min incubation at room temperature 250 μl p-dimethylaminobenzaldehyde solution was added and incubated at 60° C. for 20 min. Hydroxyproline content was measured at 565 nm using a hydroxyproline standard curve.

[9] = Estimated choleretic potency in mice; format: in vivo; conditions: relative to normal bile flow
[10] = rats; cited from earlier work
Ntcp, Oatp1, Bsep, Mrp2 = assay: mRNA expression of hepatocellular uptake and canalicular efflux systems; format: in vivo; conditions: Mdr2−/− mice fed 0.5% w/w for 4 weeks; data not shown
Experimental: as §1, §2

collagen 1 and 3 mRNA = assay: Hepatic collagen 1 and 3 mRNA expression; format: in vivo; conditions: Mdr2−/− mice fed 0.5% w/w for 4 weeks
Experimental: as §1, §2

[11] = norUDCA metabolism and excretion in mice; format: in vivo
[12] = Mdr2−/− mice fed 0.5% w/w for 4 weeks

SMILES	Relative expression level of Mrp4 (Mrp4)	Relative expression level of Cyp3a11 (Cyp3a11)	Relative expression level of Sult2a1 (Sult2a1)	Relative expression level of Cyp2b10 (Cyp2b10)	Biliary excretion of bicarbonate (Mdr2−/− mice [1]) [nmol/g/min]	Biliary excretion of bile acids (Mdr2−/− mice [1]) [nmol/g/min]	Biliary excretion of cholesterol (Mdr2−/− mice [1]) [nmol/g/min]	Biliary excretion of glutathione (Mdr2−/− mice [1]) [nmol/g/min]	Biliary excretion of phospholipids (Mdr2−/− mice [1]) [nmol/g/min]	Bile flow (Mdr2−/− mice [1]) [µL/g/min]	Relative expression level of Cyp7a1 (Cyp7a1)	ALT (Mdr2−/− mice [2]) [U/L]	AP (Mdr2−/− mice [2]) [U/L]	Bili (Mdr2−/− mice [2])	Relative expression level of Ugt1a1 (Ugt1a1)	Relative expression level of Mrp3 (Mrp3)	further results
C[C@H](CCC(=O)O)[C@H]1CC[C@H]2[C@@H]3[C@@H](O)C[C@@H]4C[C@H](O)CC[C@]4(C)[C@H]3CC[C@]12C [UDCA, Ursodeoxycholic acid]	357 ± 95	246 ± 72	100 ± 46	751 ± 245	67.1 ± 10.0	37.2 ± 7.6	0.3 ± 0.1	5.6 ± 1.1	0.3 ± 0.03	2.4 ± 0.3	9 ± 4	576 ± 175	399 ± 73	0.55 ± 0.19	137 ± 55	194 ± 55	Animals showing bile infarcts (Mdr2−/− mice [3]; [12]): 2 out of 5
C[C@H](CC(=O)O)[C@H]1CC[C@H]2[C@@H]3[C@@H](O)C[C@@H]4C[C@H](O)CC[C@]4(C)[C@H]3CC[C@]12C [norUDCA, 3-alpha,7-alpha-dihydroxy-24-nor-5-beta-cholan-23-oic acid]	590 ± 193	241 ± 45	24157 ± 14948	1294 ± 418	98.8 ± 14.6	29.5 ± 2.3	0.2 ± 0.04	5.8 ± 1.2	0.3 ± 0.1	3.5 ± 0.3	60 ± 30	165 ± 23	162 ± 25	0.23 ± 0.2	304 ± 81	207 ± 73	Number of portal neutrophils (CD11b-positive cells per 20 portal fields) / portal inflammation [4]: significantly reduced number of portal neutrophils; Renal excretion of norUDCA ([5]; humans (men)): considerable renal excretion; Major metabolite of norUDCA ([5]; humans): glucuronide; Estimated choleretic potency [6]: about three times above that of normal bile flow; VCAM expression in bile duct epithelial cells (VCAM): significantly lower VCAM expression; Proliferation of bile duct epithelial cells / cholangiocytes (Ki-67 positive) [7]: significantly reduced the degree of hepatocyte and bile duct epithelial cell proliferation to nearly wild type control levels; Proliferation of hepatocytes (Ki-67 positive) [7]: significantly reduced the degree of hepatocyte and bile duct epithelial cell proliferation to nearly wild type control levels; Hepatic hydroxyproline content (Mdr2−/− mice [8]): reduced to baseline levels; Estimated choleretic potency [9]: about three times above that of normal bile flow; Induced bile flow [10]: 0.16 mL/min/kg; mRNA expression of hepatocellular uptake (Ntcp, Oatp1) and canalicular efflux (Bsep, Mrp2) systems (Ntcp, Oatp1, Bsep, Mrp2): no significant effects; Hepatic collagen 1 and 3 mRNA expression (collagen 1 and 3 mRNA): significant reduction; Ductular proliferation (Mdr2−/− mice [3]; [12]): virtually absent; Large bile duct disease (H&E staining) (Mdr2−/− mice [3]; Mdr2−/− mice fed 0.5% w/w for 4 weeks, vs control diet-fed KO, FIG. 1A): absent; Fibrosis with periductal collagen fibers (Sirius red staining) (Mdr2−/− mice [3]; Mdr2−/− mice fed 0.5% w/w for 4 weeks, vs control diet-fed KO, FIG. 1C): even more pronounced reduction; Sclerosing cholangitis (Mdr2−/− mice [3]; Mdr2−/− mice, model for PSC, within 4 weeks): cures sclerosing cholangitis; Major metabolite of norUDCA ([11]; mice): glucuronide; Renal excretion of norUDCA ([11]; mice): considerable renal excretion; Bile acid sulfates and glucuronides in urine ([11]; norUDCA fed Mdr2−/− mice): appearance of bile acid sulfates and glucuronides in urine
